Laboratory results from US20120196927A1, “PROPHYLACTIC AND/OR THERAPEUTIC AGENT FOR METABOLIC SYNDROME” (priority 2009, published 2012).

What was measured:
[1] = system: C57BL/6J-ob/ob mice; settings: nobiletin 200 mg/kg/day, Pioglitazone 30 mg/kg/day, 5 weeks
Text: (§1) Diabetes model mice and the experimental system were as follows. As the diabetes model mice, 7 week age of male C57BL/6J-ob/ob (hereinafter, it was referred to as “ob/ob”) were purchased from Charles River Laboratories Japan Inc., and used as 10 mice/group.
For the negative control group (from FIGS. 5 to 10, it was shown as Vehicle; hereinafter, it is referred to as “solvent administration group”), 0.3% of CMC aqueous solution was administrated orally for 5 weeks in everyday at the dosage of 0.01 mL/g body weight. For the positive control group (in FIGS. 5 to 10 and hereinafter, it was referred to as “P30 administrated group”), 3 mg of Pioglitazone was suspended in 0.3% CMC aqueous solution so as to be orally administrated at the dosage of 0.01 mL/g body weight for 5 weeks in everyday (dosage: 30 mg/kg body weight/day). […]
The blood insulin level was measured as described in below. […] As lipids in plasma, concentrations of neutral fat (TG) and total cholesterol (T-CHO) were measured. Plasma insulin level was measured by using rebis insulin mouse (type U) (Shibayagi Co. Ltd.) based on the enzyme-immunoassay.

[2] = system: male C57BL/6 mice; test: Nobiletin, obesity-induced mice: glucose tolerance test (OGTT); assay type: in vivo, mouse; settings: for Blood glucose level (OGTT): HFD
Method: The sugar tolerance test was carried out as the same as those done in the example 2 (n=9).

[3] = system: C57BL/6J-ob/ob mice; assay type: in vivo, mouse; settings: p.o. daily 5 weeks, nobiletin 200 mg/kg/day (No200), Pioglitazone 30 mg/kg/day (P30)
Text: as §1
For the negative control group (from FIGS. 5 to 10, it was shown as Vehicle; hereinafter, it is referred to as “solvent administration group”), 0.3% of CMC aqueous solution was administrated orally for 5 weeks in everyday at the dosage of 0.01 mL/g body weight. For the positive control group (in FIGS. 5 to 10 and hereinafter, it was referred to as “P30 administrated group”), 3 mg of Pioglitazone was suspended in 0.3% CMC aqueous solution so as to be orally administrated at the dosage of 0.01 mL/g body weight for 5 weeks in everyday (dosage: 30 mg/kg body weight/day).
For the sample ingestion group (in FIGS. 5 to 10 and hereinafter, it is referred to as “No200 ingestion group”), 20 mg of nobiletin purified as mentioned above (1) was suspended in 0.3% of carboxymethylcellulose (CMC) aqueous solution so as to be orally administrated at the dose of 0.01 mL/g body weight for 5 weeks in everyday (the dose: 200 mg/kg/day).
The body weight of mice, ingestion amount, weight of the white adipose tissue and liver weight of each mice were measured as the same as described in the example 3.

[4] = system: male C57BL/6 mice; test: Nobiletin, obesity-induced mice: blood lipid, glucose and adiponectin level; assay type: in vivo, mouse; settings: HFD; for Adipo *2 (Relative level of adiponectin): blood adiponectin to total weight of the white adipose tissue
Method: After the completion of the experiment, the levels of the blood neutral fat, total cholesterol, glucose, and adiponectin in the fating state, and those of the blood neutral fat, total cholesterol, and glucose in satiety state were determined as the same as those in the Example 1. In the table 22, relative adiponectin level means the ratio of specific level of the blood adiponectin to the total weight of the white adipose tissue.

[5] = system: SREBP1-c, SCD1, FAS, ACC1, DGAT1, GLUT4, Adiponectin, TNF-α, MCP-1, PPARγ genes; test: Nobiletin, obesity-induced mice: gene expression in the white adipose tissue (mRNA); assay type: in vivo, mouse
Method: mRNA expression level was determined by using real time PCR as follows. According to the direction attached with ISOGEN (Nippon Gene Co., Ltd), RNA was extracted from white adipose tissue, liver, and skeletal muscle. Next, cDNA was prepared from 1 μg of RNA by using Reverse Transcription System kit (Promega, USA). Subsequently, according to the direction attached with FastStart universal SYBR (Registered trademark) Greenmaster PCR kit reagent (Roche Diagnostics, Germany), primers suitable for each intended gene in the following experiments were synthesized. Real time PCR system 7700 HT (Applied Biosytems, USA) was used for the measurement, the cDNA was used as templates for the real time PCR. Reaction conditions were followed to those for the PCR kit reagents. Quantitative analysis of RNA level was performed by Comparison Ct method, using glyceraldehyde 3-phosphate dehydrogenase (GAPDH) as the standard.
The expression of mouse lipid biosynthesis-related gene and other gene shown in the following table 24 after obesity induction by ingesting the high fat diet were determined as mRNA levels to study the effects of nobiletin to these gene expression (n=9). The expression levels of each gene were shown in the ratio when those of the HFD were 1.

[6] = system: adipose cells of the white adipose tissue; test: Nobiletin, obesity-induced mice: size of the adipose cells; assay type: in vivo, mouse; settings: epididymis adipose tissue sections
Text: After the completion of the experiment, the adipose tissue of mice epididymis was excised to prepare sections to stain by using both of hematoxylin and eosin (n=9). These sections were observes under the microscope with 200-fold magnification to compare cell seizes in the field of photomicroscope vision.

[7] = system: C57BL/6J-ob/ob mice; test: Diabetes model mice: fasting blood glucose level; assay type: in vivo, mouse; settings: nobiletin 200 mg/kg/day, Pioglitazone 30 mg/kg/day p.o.
Method: Two weeks or 5 weeks from the beginning of the administration, the fasting blood glucose was measured (n=10). The measurement of the blood glucose level was carried out as the same as that of the example 1.

[8] = system: C57BL/6J-ob/ob mice; test: Diabetes model mice: oral glucose tolerance test (OGTT); assay type: in vivo, mouse; settings: nobiletin 200 mg/kg/day, Pioglitazone 30 mg/kg/day
Method: The oral glucose tolerance test (OGTT) for the diabetes model mice (ob/ob) to which the nobiletin and others were administrated was subjected to the glucose tolerance test for studying the effects.
From 4 weeks after the start of the administration, the mice in each group were fasted for 16 hours, and then they were administrated 2 g/kg body weight of glucose per os. After the administration of glucose, […] of blood was collected from the tail vein at the time point of 0, 30, 60 and 120 minutes. Collected blood was centrifuged at 4° C., 3,000×g, for 15 minute to obtain plasma (n=10). The blood glucose level was measured as the same as that described in the example 1.

[9] = Fasting state, nobiletin 10 mg/kg/day p.o. 5 weeks
[10] = Fasting state, nobiletin 100 mg/kg/day p.o. 5 weeks
[11] = Satiety state, nobiletin 10 mg/kg/day p.o. 5 weeks
[12] = Satiety state, nobiletin 100 mg/kg/day p.o. 5 weeks
[13] = ratio HFD = 1, nobiletin 10 mg/kg/day p.o. 5 weeks
[14] = ratio HFD = 1, nobiletin 100 mg/kg/day p.o. 5 weeks

COc1ccc(-c2cc(=O)c3c(OC)c(OC)c(OC)c(OC)c3o2)cc1OC [nobiletin]
Adiponectin level in blood, times higher than solvent administration group [1]: not so high | area under the curve (AUC) of blood glucose in OGTT, compared with HFD administration group ([2]; 0 to 120 minutes, nobiletin 10 mg/kg/day p.o.): no significant difference | area under the curve (AUC) of blood glucose in OGTT, compared with HFD group ([2]; 0 to 120 minutes, nobiletin 100 mg/kg/day p.o., p<0.05): significant difference | Blood glucose level (OGTT) ([2]; 0 minute after glucose, nobiletin 10 mg/kg/day p.o.): 157.47 ± 10.54 mg/dL | Blood glucose level (OGTT) ([2]; 0 minute after glucose, nobiletin 100 mg/kg/day p.o.): 128.49 ± 5.59 mg/dL | Blood glucose level (OGTT) ([2]; 15 minutes after glucose, nobiletin 10 mg/kg/day p.o.): 384.94 ± 17.66 mg/dL | Blood glucose level (OGTT) ([2]; 15 minutes after glucose, nobiletin 100 mg/kg/day p.o.): 340.91 ± 16.88 mg/dL | Blood glucose level (OGTT) ([2]; 30 minutes after glucose, nobiletin 10 mg/kg/day p.o.): 342.5 ± 27.08 mg/dL | Blood glucose level (OGTT) ([2]; 30 minutes after glucose, nobiletin 100 mg/kg/day p.o.): 334.84 ± 16.98 mg/dL | Blood glucose level (OGTT) ([2]; 60 minutes after glucose, nobiletin 10 mg/kg/day p.o.): 271.76 ± 31.64 mg/dL | Blood glucose level (OGTT) ([2]; 60 minutes after glucose, nobiletin 100 mg/kg/day p.o.): 267.27 ± 18.22 mg/dL | Blood glucose level (OGTT) ([2]; 120 minutes after glucose, nobiletin 10 mg/kg/day p.o.): 217.1 ± 35.92 mg/dL | Blood glucose level (OGTT) ([2]; 120 minutes after glucose, nobiletin 100 mg/kg/day p.o.): 178.45 ± 15.37 mg/dL | Gained body weight [3]: 9.33 ± 0.49 g | white adipose tissue [3]: 5.69 ± 0.17 g | Blood level, Adipo *1 (adiponectin) [4, 9]: 7.19 ± 0.82 µg/mL | Blood level, Glucose [4, 9]: 157.47 ± 10.54 mg/dL | Blood level, T-CHO [4, 9]: 109.88 ± 9.09 mg/dL | Blood level, TG [4, 9]: 79.99 ± 8.04 mg/dL | Blood level, Adipo *1 (adiponectin) [4, 10]: 6.96 ± 0.99 µg/mL | Blood level, Glucose [4, 10]: 128.49 ± 5.59 mg/dL | Blood level, T-CHO [4, 10]: 131.55 ± 8.63 mg/dL | Blood level, TG [4, 10]: 78.69 ± 6.57 mg/dL | Blood level, Glucose [4, 11]: 224 ± 24.67 mg/dL | Blood level, T-CHO [4, 11]: 147.47 ± 10.40 mg/dL | Blood level, TG [4, 11]: 141.05 ± 12.25 mg/dL | Blood level, Glucose [4, 12]: 224.76 ± 21.88 mg/dL | Blood level, T-CHO [4, 12]: 169.24 ± 6.03 mg/dL | Blood level, TG [4, 12]: 100.80 ± 14.95 mg/dL | Adipo *2 (Relative level of adiponectin) ([4]; Fasting state, nobiletin 10 mg/kg/day p.o.): 3.87 ± 0.86 µg/mL/g | Adipo *2 (Relative level of adiponectin) ([4]; Fasting state, nobiletin 100 mg/kg/day p.o.): 5.34 ± 0.97 µg/mL/g | Expression level, ACC1 [5, 13]: 2.06 ± 0.05 | Expression level, Adiponectin [5, 13]: 1.97 ± 0.09 | Expression level, DGAT1 [5, 13]: 2.17 ± 0.19 | Expression level, FAS [5, 13]: 2.78 ± 0.06 | Expression level, GLUT4 [5, 13]: 1.34 ± 0.09 | Expression level, MCP-1 [5, 13]: 0.44 ± 0.02 | Expression level, PPARγ [5, 13]: 1.61 ± 0.11 | Expression level, SCD1 [5, 13]: 2.30 ± 0.06 | Expression level, SREBP1-c [5, 13]: 2.15 ± 0.21 | Expression level, TNF-α [5, 13]: 1.06 ± 0.12 | Expression level, ACC1 [5, 14]: 1.69 ± 0.07 | Expression level, Adiponectin [5, 14]: 2.02 ± 0.08 | Expression level, DGAT1 [5, 14]: 1.80 ± 0.14 | Expression level, FAS [5, 14]: 2.50 ± 0.03 | Expression level, GLUT4 [5, 14]: 1.35 ± 0.07 | Expression level, MCP-1 [5, 14]: 0.35 ± 0.01 | Expression level, PPARγ [5, 14]: 1.36 ± 0.05 | Expression level, SCD1 [5, 14]: 2.95 ± 0.17 | Expression level, SREBP1-c [5, 14]: 1.53 ± 0.20 | Expression level, TNF-α [5, 14]: 0.58 ± 0.14 | adipose cell size compared with HFD group ([6]; nobiletin 10 mg/kg/day p.o. 5 weeks): not large difference | adipose cell size compared with HFD group ([6]; nobiletin 100 mg/kg/day p.o. 5 weeks): became smaller | Blood glucose level (fasting) ([7]; 0 week after administration): 175.61 ± 11.44 mg/dL | Blood glucose level (fasting) ([7]; 2 weeks after administration): 169.22 ± 13.22 mg/dL | Blood glucose level (fasting) ([7]; 5 weeks after administration): 148.46 ± 7.56 mg/dL | Blood glucose level (OGTT) ([8]; 0 min after 2 g/kg glucose p.o.): 145.26 ± 7.56 mg/dL | Blood glucose level (OGTT) ([8]; 30 min after 2 g/kg glucose p.o.): 304.41 ± 20.23 mg/dL | Blood glucose level (OGTT) ([8]; 60 min after 2 g/kg glucose p.o.): 207.47 ± 11.56 mg/dL | Blood glucose level (OGTT) ([8]; 120 min after 2 g/kg glucose p.o.): 192.57 ± 9.01 mg/dL
